According to ChEMBL document CHEMBL1135200, “Inhibition of the U1A-RNA complex by an aminoacridine derivative” (Bioorg Med Chem Lett, 2002):

Experiments:
Nucleic Acid [1] = assay: Ability to inhibit the […]-RNA complex formation; assay type: nucleic-acid assay
Nucleic Acid [2] = assay: Ability to inhibit the formation of the U1A-stem loop 2 RNA complex using gel mobility shift assay; assay type: nucleic-acid assay
[3] = Ability to inhibit formation of the TatTAR complex by binding to the closing GC or CG base pair and adjacent nucleotides of loops in the TAR RNA.

IC50 (Nucleic Acid [1]) [µM] | IC50 (Nucleic Acid [2]) [µM] | IC50 [3] [µM] | Structure (SMILES)
1 | 1 | 22 | COc1ccc2nc3cc(Cl)ccc3c(NCCCN(CCCN)CCCCN)c2c1
 | 10000 | 10 | Nc1nc(N)c2c(N)c(N)ccc2n1
